Measurements published in patent publication US7071178B2, “Use of vitamin D-derivatives in the treatment of osteoporosis and related bone disorders, as well as novel vitamin D3-derivatives” (Leo Pharmaceutical Products, Ltd., priority 2000, dated 2006).

System: OVX rats
Assay: OVX rat model on osteoporosis: biomechanical test of bone strength
Type: in vivo
Set-up: key to Effect on bone strength, Femor. Meta., vs 1,25D3 / Effect on bone strength, L3, vs 1,25D3 / Effect on bone strength, Femor. Dia., vs 1,25D3: <: less effect than the reference dose of 1,25D3 (0.25 ug/kg); <=: less or the same effect as the reference dose of 1,25D3 (0.25 ug/kg); =: same effect as the reference dose of 1,25D3 (0.25 ug/kg); =>: same or better effect as the reference dose of 1,25D3 (0.25 ug/kg); >: better effect than the reference dose of 1,25D3 (0.25 ug/kg)
Conditions: oral 28 days
Protocol: FIG. 2 is a graphic illustration of the biomechanical test of the lumbal vertebrae, L3. The vertebral body cylinder were tested along the proximal-distal axis in a materials testing machine (Alwetron TCT 5, Lorentzen and Wettre, Stockholm, Sweden) at a constant deformation rate of 2 mm/min. During compression, load-deformation curves were recorded and stored on a PC (ProLinea 4/33, Compaq, USA). Fmax is the maximum point on the load deforming curve.
The rats were treated according to the OVX rat model described herein, and wherein the animal groups received treatment according to the same scheme as for FIG. 1. A statistical analysis is shown in the graphic illustration, cf. description for FIG. 1.
Pharmacological Methods—OVX Rat Model on Osteoporosis
To study bone anabolic properties and the effects of the vitamin D analogues of the present invention in preventing or treating demineralisation of the skeleton in vivo, a 4 weeks OVX rat model was used:
An ovariectomized rat model (OVX model), orally dosed for 28 days is useful for screening of vitamin D analogues. In this model ovariectomy produces alterations in the cancellous network identical to those seen in the human skeleton during ageing and the menopause. Besides this the model and the following analyses can be performed under very standardised conditions. 1α,25(OH)2D3 is used as a reference compound.
Female Sprague Dawley rats weighing approximately 130 g (40–45 days old) were purchased from MB, Ejby, Denmark. The animals were fed a commercial diet and allowed free access to food and drinking water. The animals were split into groups receiving differential treatment.
The animals were anaesthetised and ovariectomized through a dorsal incision.
Treatment of OVX animals was started 2 weeks after ovariectomy.
The animals were dosed orally for 28 days. The oral dosage was by gavage 0.1 ml/100 g bodyweight. The bodyweight of each animal was recorded every day prior to oral dosing. On day 7, 14, 21 and 28 the animals were housed separately for 24 hours in metabolic cages for collection of urine. Urine was frozen at −20° C. for later calcium measurement.
Left and right femur, left and right tibia, lumbal vertebrae 3 and 4 (L3 and L4) were removed and cleaned for all soft- and connecting tissue. Left femur, left and right tibia and L4 were dried in an oven at 50–60° C. for at least 24 hours and immediately hereafter weighed. The bones were burned in an oven at 800° C. for 4 hours, dissolved in 1N HCl, and analysed for calcium content in a Hitachi 911 autoanalyser. Right femur and L3 were kept in 0.9% NaCl and frozen at −20° C. for later biomechanical testing performed by Jesper Skovhus Thomsen and Lis Mosekilde at Aarhus University, measuring various biomechanical parameters.
Effect of Compound 145 compared to the reference dose of 1,25(OH)2D3 (1,25D3) (0.25 μg/kg) and compared to the OVX control group (shown in %) are shown in Tables 1 to 4.

For C=C1C(=CC=C2CCCC3(C)C2CCC3C(C)CSc2ccc(C(C)(C)O)cc2)CC(O)CC1O [Compound 145, 1(S),3(R)-Dihydroxy-20(R)-(4-((1-hydroxy-1-methyl)ethyl)phenylthiomethyl)-9,10-seco-pregna-5(Z),7(E),10(19)-triene], the “Effect on bone strength, Femor. Dia., vs 1,25D3” value (from here on “Effect … Femor. Dia., vs 1,25D3”) (1 μg/kg, MTR/16) was “<=”, the “Effect on bone strength, Femor. Meta., vs 1,25D3” value (shortened to “Effect … Femor. Meta., vs 1,25D3”) (1 μg/kg, MTR/16) was “<” and the “Effect on bone strength, L3, vs 1,25D3” value (1 μg/kg, MTR/16) was “<”. For the same molecule, the “Effect … Femor. Dia., vs 1,25D3” value (10 μg/kg, MTR/16) was “=”, the “Effect … Femor. Meta., vs 1,25D3” value (10 μg/kg, MTR/16) was “=” and the “Effect on bone strength, L3, vs 1,25D3” value (10 μg/kg, MTR/16) was “>”. The “Effect … Femor. Dia., vs 1,25D3” value (10 μg/kg, MTR/23) was “<=”, the “Effect on bone strength, Femor. Dia., vs Ovx contr” value (“Effect … Femor. Dia., vs Ovx contr” for short) (10 μg/kg, MTR/23) was −5% and the “Effect … Femor. Meta., vs 1,25D3” value (10 μg/kg, MTR/23) was “<”. For the same molecule, the “Effect on bone strength, Femor. Meta., vs Ovx contr” value (“Effect … Femor. Meta., vs Ovx contr” below) (10 μg/kg, MTR/23) was 6%, the “Effect on bone strength, L3, vs 1,25D3” value (10 μg/kg, MTR/23) was “=” and the “Effect on bone strength, L3, vs Ovx contr” value (“Effect … L3, vs Ovx contr” below) (10 μg/kg, MTR/23) was 23%. The “Effect … Femor. Dia., vs 1,25D3” value (25 μg/kg, MTR/27) was “>”, the “Effect … Femor. Dia., vs Ovx contr” value (25 μg/kg, MTR/27) was 9% and the “Effect … Femor. Meta., vs 1,25D3” value (25 μg/kg, MTR/27) was “>”. For the same molecule, the “Effect … Femor. Meta., vs Ovx contr” value (25 μg/kg, MTR/27) was 39%, the “Effect on bone strength, L3, vs 1,25D3” value (25 μg/kg, MTR/27) was “<=” and the “Effect … L3, vs Ovx contr” value (25 μg/kg, MTR/27) was 27%. For the same molecule, the “Effect … Femor. Dia., vs 1,25D3” value (50 μg/kg, MTR/23) was “=”, the “Effect … Femor. Dia., vs Ovx contr” value (50 μg/kg, MTR/23) was −1% and the “Effect … Femor. Meta., vs 1,25D3” value (50 μg/kg, MTR/23) was “>”. The “Effect … Femor. Meta., vs Ovx contr” value (50 μg/kg, MTR/23) was 43%, the “Effect on bone strength, L3, vs 1,25D3” value (50 μg/kg, MTR/23) was “>” and the “Effect … L3, vs Ovx contr” value (50 μg/kg, MTR/23) was 45%. For the same molecule, the “Effect … Femor. Dia., vs 1,25D3” value (50 μg/kg, MTR/27) was “>”, the “Effect … Femor. Dia., vs Ovx contr” value (50 μg/kg, MTR/27) was 5% and the “Effect … Femor. Meta., vs 1,25D3” value (50 μg/kg, MTR/27) was “>”. The “Effect … Femor. Meta., vs Ovx contr” value (50 μg/kg, MTR/27) was 31%, the “Effect on bone strength, L3, vs 1,25D3” value (50 μg/kg, MTR/27) was “<” and the “Effect … L3, vs Ovx contr” value (50 μg/kg, MTR/27) was 22%. For the same molecule, the “Effect … Femor. Dia., vs 1,25D3” value (75 μg/kg, MTR/27) was “>”, the “Effect … Femor. Dia., vs Ovx contr” value (75 μg/kg, MTR/27) was 4% and the “Effect … Femor. Meta., vs 1,25D3” value (75 μg/kg, MTR/27) was “>>”. The “Effect … Femor. Meta., vs Ovx contr” value (75 μg/kg, MTR/27) was 50%, the “Effect on bone strength, L3, vs 1,25D3” value (75 μg/kg, MTR/27) was “=” and the “Effect … L3, vs Ovx contr” value (75 μg/kg, MTR/27) was 38%. The “Effect … Femor. Dia., vs 1,25D3” value (100 μg/kg, MTR/23) was “=”, the “Effect … Femor. Dia., vs Ovx contr” value (100 μg/kg, MTR/23) was −3% and the “Effect … Femor. Meta., vs 1,25D3” value (100 μg/kg, MTR/23) was “=”. The “Effect … Femor. Meta., vs Ovx contr” value (100 μg/kg, MTR/23) was 21%, the “Effect on bone strength, L3, vs 1,25D3” value (100 μg/kg, MTR/23) was “>” and the “Effect … L3, vs Ovx contr” value (100 μg/kg, MTR/23) was 37%.
